Test results reported in patent US20060073220A1, “Cinnamon extract enriched for polyphenols and methods of preparing same” (priority 2004, published 2006).
Values after ≈ are worked out from the molar mass of the structure shown.

Assays:
[1] = tested on: HSV-1; assay: antiviral assay, HSV-1; assay type: cell-based, Herpes simplex virus 1; details: positive control, HHF cells
[2] = tested on: HSV-2; assay: antiviral assay, HSV-2; assay type: cell-based, Herpes simplex virus 2; details: positive control, HHF cells
[3] = tested on: Influenza B; assay: antiviral assay, Influenza B; assay type: cell-based; details: positive control, MDCK cells
[4] = tested on: Adenovirus Type 1; assay: antiviral assay, Adenovirus Type 1; assay type: cell-based
[5] = tested on: Punta Toro A; assay: antiviral assay, Punta Toro A; assay type: cell-based, Punta Toro A virus
[6] = tested on: Rhinovirus Type 2; assay: antiviral assay, Rhinovirus Type 2; assay type: cell-based
[7] = tested on: West Nile Virus; assay: antiviral assay, West Nile Virus; assay type: cell-based; details: positive control, Vero cells
[8] = tested on: RSV (respiratory syncytial virus); assay: RSV (respiratory syncytial virus) assay; assay type: cell-based
[9] = tested on: PIV (parainfluenza virus); assay: PIV (parainfluenza virus) assay; assay type: cell-based
[10] = tested on: Influenza A; assay: Influenza A assay (strain not stated for the control); assay type: cell-based, influenza A virus

| SMILES | ED50 HSV1 assay [1] | ED50 HSV2 assay [2] | ED50 Influenza B assay [3] | ED50 Adenovirus type 1 assay [4] | ED50 Punta Toro A assay [5] | ED50 Rhinovirus assay [6] | ED50 West Nile viral assay [7] | ED50 RSV assay [8] | ED50 PVI (parainfluenza virus) assay [9] | ED50 Influenza A assay [10] |
| --- | --- | --- | --- | --- | --- | --- | --- | --- | --- | --- |
| Nc1nc2c(ncn2COCCO)c(=O)[nH]1 [acyclovir] | 1 to 2 µg/mL | 1 to 2 µg/mL |  |  |  |  |  |  |  |  |
| NC(=O)c1ncn([C@@H]2O[C@H](CO)[C@@H](O)[C@H]2O)n1 [ribivarin] |  |  | 2 to 3 µg/mL | 10 µg/mL (≈ 40.9 µM) | 20 µg/mL (≈ 81.9 µM) | < 1 µg/mL | 20 µg/mL (≈ 81.9 µM) | 20 µg/mL (≈ 81.9 µM) | 20 µg/mL (≈ 81.9 µM) | 2 to 3 µg/mL |
